Where two headings read alike, the source gives them in different places.
What was measured:
MV-4-11 cells = experiment: Oncology cell growth assay MV-4-11 (CellTiter Glo); format: cell-based
Source text: Published bromodomain inhibitors JQ1 and iBET 151 have shown activity in variety of cancer cells such leukemia and lymphoma, multiple myeloma cells, NUT midline carcinoma and glioblastoma cells (Dawson M A et al. 2011; Delmore J E 2011; Chen Z et al. 2013; Filippakopoulos P et al. 2010; Mertz J A et al. 2011; Ott C J et al. 2012). In this study, we test compounds in different cancer cell lines. MV-4-11 and MOLM-13 are AML cell lines harboring a MLL-AF4 and MLL-AF9 translocation, respectively. MM.1S is a multiple myeloma cell line. SK-N-AS, IMR-32 and SK-N-BE(2) are neuroblastoma cell lines. IMR-32 and SK-N-BE(2) cell lines harbor MYCN amplifications.
MV-4-11, MM.1S, IMR-32, SK-N-AS and SK-N-BE(2) were obtained from ATCC (IL, USA) and MOLM-13 were purchased from DSMZ (Braunschweig, German). Cells are cultured as recommended by their sources. For growth inhibition studies 3000 cells are seeded in wells of a 96-well plate in 75 μL of culture media. After several hours, growth media containing compounds of formula (I) are added to the wells. Compound at a maximal concentration of 5 mM was serially diluted 1:3 for a total of 8 point titration with DMSO as a control. A 1 μL aliquot of each dilution point is added to 249 μL growth media and 75 μL is added to each well containing cells, providing 10 μM compound at the maximum concentration point. The final concentration of DMSO in all wells is 0.2%. Cells are incubated for 72 hours, and 25 μL of CellTiter Glo Reagent (Promega GA, USA) is added to each well. Plates are shaken for approximately 10 minutes and chemiluminescent signal is read on Tecan microplate reader. The measured luminescence correlates directly with cell number.
All data is normalized to the mean of eight DMSO high control wells on each plate. A four parameter curve fit of the following formula was then applied: Y=a+(b−a)/(1+(x/c)^d) Where ‘a’ is the minimum, ‘b’ is the maximum, ‘c’ is the pIC50 and ‘d’ is the Hill slope. […] Myc Reporter Assay

bromodomain = experiment: at least one of the bromodomain cell assays of Example 57; format: cell-based; conditions: read-out: IC50 in at least one of the bromodomain cell assays
[1] = Homo sapiens, MV4-11, 72 h; MV-4-11, 3d growth; read-out: Cell activity (IC50 μM) MV-4-11 3d-Growth
[2] = at least one of the bromodomain cell assays described in Example 57
[3] = Homo sapiens, MV4-11, 72 h; read-out: Cell activity (IC50 μM) MV-4-11 3d-Growth
[4] = Homo sapiens, MV4-11, 72 h, read-out: Cell activity (IC50 μM) MV-4-11 3d-Growth

Row | SMILES | IC50 (bromodomain; [2]) [µM] | further results
1 | [2H]c1c([2H])c([2H])c(C([2H])(n2cc(-c3ccc(C(=O)OC)cc3)c3ncc(-c4c(C)noc4C)cc32)C([2H])([2H])[2H])c([2H])c1[2H] (stereo not shown) [P-0605, methyl 4-[6-(3,5-dimethylisoxazol-4-yl)-1-[1,2,2,2-tetradideuterio-1-(2,3,4,5,6-pentadeuteriophenyl)ethyl]pyrrolo[3,2-b]pyridin-3-yl]benzoate] | < 10 | IC50 (MV-4-11 cells; [1]): < 1 µM
2 | [2H]C([2H])(C1CCC(F)(F)CC1)n1cc(-c2cnn(CC(F)(F)F)c2)c2ncc(-c3c(C)noc3C)cc21 [P-0221, 4-[1-[dideuterio-(4,4-difluorocyclohexyl)methyl]-3-[1-(2,2,2-trifluoroethyl)pyrazol-4-yl]pyrrolo[3,2-b]pyridin-6-yl]-3,5-dimethyl-isoxazole] | < 10 | IC50 (MV-4-11 cells; [3]): < 1 µM
3 | Cc1noc(C)c1-c1cnc2c(-c3ccc(C(=O)O)cc3)cn([C@@H](C)c3ccccn3)c2c1 [P-0511, 4-[6-(3,5-dimethylisoxazol-4-yl)-1-[(1S)-1-(2-pyridyl)ethyl]pyrrolo[3,2-b]pyridin-3-yl]benzoic acid] | – | IC50 (MV-4-11 cells; [4]): < 1 µM; IC50 (bromodomain): < 10 µM
4 | Cc1noc(C)c1-c1cnc2c(-c3ccc(C(=O)O)cc3)cn(CC3CC4(CCC4)C3)c2c1 [P-0603, 4-[6-(3,5-dimethylisoxazol-4-yl)-1-(spiro[3.3]heptan-6-ylmethyl)pyrrolo[3,2-b]pyridin-3-yl]benzoic acid] | < 10 | IC50 (MV-4-11 cells; [1]): < 1 µM
5 | Cc1noc(C)c1-c1cnc2c(-c3ccc(C(=O)O)cc3)cn(C(C)c3ccccn3)c2c1 (stereo not shown) [P-0369, 4-[6-(3,5-dimethylisoxazol-4-yl)-1-[1-(2-pyridyl)ethyl]pyrrolo[3,2-b]pyridin-3-yl]benzoic acid] | – | IC50 (MV-4-11 cells; [4]): < 1 µM; IC50 (bromodomain): < 10 µM
6 | CNC(=O)c1ccc(-c2cnc3ccn(CC4CCC(F)(F)CC4)c3c2)cn1 [P-0359, 5-[1-[(4,4-difluorocyclohexyl)methyl]pyrrolo[3,2-b]pyridin-6-yl]-N-methyl-pyridine-2-carboxamide] | < 10 | IC50 (MV-4-11 cells; [3]): 10 to 200 µM
7 | [2H]c1c([2H])c([2H])c(C([2H])(n2cc(-c3cnn(CC(F)(F)F)c3)c3ncc(-c4c(C)noc4C)cc32)C([2H])([2H])[2H])c([2H])c1[2H] (stereo not shown) [P-0606] | < 10 | IC50 (MV-4-11 cells; [1]): < 1 µM
8 | Cc1cc(-c2cnc3c(-c4ccc(C(=O)O)cc4)cn(CC4CCC(F)(F)CC4)c3c2)cn(C)c1=O [P-0613, 4-[1-[(4,4-difluorocyclohexyl)methyl]-6-(1,5-dimethyl-6-oxo-3-pyridyl)pyrrolo[3,2-b]pyridin-3-yl]benzoic acid] | < 10 | –
9 | Cc1noc(C)c1-c1cnc2c(-c3ccc(B(O)O)cc3)cn([C@H](c3ccccc3)c3ccccn3)c2c1 [P-0729, [4-[6-(3,5-dimethylisoxazol-4-yl)-1-[(R)-phenyl(2-pyridyl)methyl]pyrrolo[3,2-b]pyridin-3-yl]phenyl]boronic acid] | < 10 | –
10 | Cc1noc(C)c1-c1cnc2c(-c3ccc(C4(C(=O)O)CC4)cc3)cn(CC3CCCCC3)c2c1 [P-0702, 1-[4-[1-(cyclohexylmethyl)-6-(3,5-dimethylisoxazol-4-yl)pyrrolo[3,2-b]pyridin-3-yl]phenyl]cyclopropanecarboxylic acid] | < 10 | –
11 | Cc1noc(C)c1-c1cnc2c(-c3ccc(C(=O)OC(C)C)cc3)cn([C@@H](c3ccccc3)c3ccccn3)c2c1 [P-0717, isopropyl 4-[6-(3,5-dimethylisoxazol-4-yl)-1-[(S)-phenyl(2-pyridyl)methyl]pyrrolo[3,2-b]pyridin-3-yl]benzoate] | < 10 | –
12 | Cc1ccc(-c2cn([C@@H](c3ccccn3)C3CCCCC3)c3cc(-c4c(C)noc4C)cnc23)cc1 [P-0817, 4-[1-[(R)-cyclohexyl(2-pyridyl)methyl]-3-(p-tolyl)pyrrolo[3,2-b]pyridin-6-yl]-3,5-dimethyl-isoxazole] | < 10 | –
13 | Cc1noc(C)c1-c1cnc2c(-c3ncc(C(=O)O)cn3)cn(CC3CCC(F)(F)CC3)c2c1 [P-0614, 2-[1-[(4,4-difluorocyclohexyl)methyl]-6-(3,5-dimethylisoxazol-4-yl)pyrrolo[3,2-b]pyridin-3-yl]pyrimidine-5-carboxylic acid] | < 10 | –
14 | Cc1noc(C)c1-c1cnc2c(-c3ccc(C(=O)O)cc3)cn(CC3CC4CC4C3)c2c1 (stereo not shown) [P-0621, 4-[1-(3-bicyclo[3.1.0]hexanylmethyl)-6-(3,5-dimethylisoxazol-4-yl)pyrrolo[3,2-b]pyridin-3-yl]benzoic acid] | < 10 | –
15 | Cc1ccc(-c2cn([C@@H](C)c3ccccn3)c3cc(-c4cc(C)c(=O)n(C)c4)cnc23)cc1 [P-0791, 1,3-dimethyl-5-[3-(p-tolyl)-1-[(1S)-1-(2-pyridyl)ethyl]pyrrolo[3,2-b]pyridin-6-yl]pyridin-2-one] | < 10 | –
16 | Cc1noc(C)c1-c1ccc2c(-c3ccc(C(=O)O)cc3)cn(CC3CCC(F)(F)CC3)c2c1 [P-0745, 4-[1-[(4,4-difluorocyclohexyl)methyl]-6-(3,5-dimethylisoxazol-4-yl)indol-3-yl]benzoic acid] | < 10 | –
17 | Cc1noc(C)c1-c1cnc2c(c1)c(C(c1ccccc1)c1ccccc1)cn2-c1ccc(CO)cc1 [P-0741, [4-[3-benzhydryl-5-(3,5-dimethylisoxazol-4-yl)pyrrolo[2,3-b]pyridin-1-yl]phenyl]methanol] | < 10 | –
18 | Cc1noc(C)c1-c1cnc2c(c1)c(C(c1ccccn1)c1ccccn1)cn2-c1ccc(CO)cc1 [P-0736, [4-[3-[bis(2-pyridyl)methyl]-5-(3,5-dimethylisoixazol-4-yl)pyrrolo[2,3-b]pyridin-1-yl]phenyl]methanol] | < 10 | –
19 | Cc1noc(C)c1-c1cnc2c(c1)c(C(c1ccccn1)c1ccccn1)cn2-c1ccc(C(=O)O)cc1 [P-0735, 4-[3-[bis(2-pyridyl)methyl]-5-(3,5-dimethylisoxazol-4-yl)pyrrolo[2,3-b]pyridin-1-yl]benzoic acid] | < 10 | –
20 | Cc1noc(C)c1-c1cnc2c(-c3ccc(C(=O)O)cc3)cn([C@@H](c3ccccn3)C3CCCCC3)c2c1 [P-0816, 4-[1-[(R)-cyclohexyl(2-pyridyl)methyl]-6-(3,5-dimethy7lisoxazol-4-yl)pyrrolo[3,2-b]pyridin-3-yl]benzoic acid] | < 10 | –
21 | Cc1noc(C)c1-c1cnc2c(-c3ccc4c(c3)OC(=O)C4)cn(CC3CCCCC3)c2c1 [P-0801, 6-[1-(cyclohexylmethyl)-6-(3,5-dimethylisoxazol-4-yl)pyrrolo[3,2-b]pyridin-3-yl]-3H-benzofuran-2-one] | < 10 | –
22 | Cc1noc(C)c1-c1cnc2c(-c3ccc(C#N)nc3)cn([C@H](c3ccccc3)c3ccccn3)c2c1 [P-0731, 5-[6-(3,5-dimethylisoxazol-4-yl)-1-[(R)-phenyl(2-pyridyl)methyl]pyrrolo[3,2-b]pyridin-3-yl]pyridine-2-carbonitrile] | < 10 | –
23 | Cc1noc(C)c1-c1cnc2c(-c3ccc([N+](=O)[O-])nc3)cn([C@H](c3ccccc3)c3ccccn3)c2c1 [P-0730, 3,5-dimethyl-4-[3-(6-nitro-3-pyridyl)-1-[(R)-phenyl(2-pyridyl)methyl]pyrrolo[3,2-b]pyridin-6-yl]isoxazole] | < 10 | –
24 | Cc1noc(C)c1-c1cnc2c(-c3ccc(C(C)(C)C(=O)O)cc3)cn(CC3CCCCC3)c2c1 [P-0703, 2-[4-[1-(cyclohexylmethyl)-6-(3,5-dimethylisoxazol-4-yl)pyrrolo[3,2-b]pyridin-3-yl]phenyl]-2-methyl-propanoic acid] | < 10 | –
25 | Cc1noc(C)c1-c1cnc2c(-c3ccc(B(O)O)cc3)cn(CC3CCCCC3)c2c1 [P-0709, [4-[1-(cyclohexylmethyl)-6-(3,5-dimethylisoxazol-4-yl)pyrrolo[3,2-b]pyridin-3-yl]phenyl]boronic acid] | < 10 | –
26 | Cc1ccc(-c2cn([C@H](c3ccccc3)c3ccccn3)c3cc(-c4c(C)noc4C)ccc23)cc1 [P-0790, 3,5-dimethyl-4-[1-[(R)-phenyl(2-pyridyl)methyl]-3-(p-tolyl)indol-6-yl]isoxazole] | < 10 | –
27 | Cc1ccc(-c2cn([C@@H](c3ccccn3)C3CCCC3)c3cc(-c4c(C)noc4C)cnc23)cc1 [P-0821, 4-[1-[(R)-cyclopentyl(2-pyridyl)methyl]-3-(p-tolyl)pyrrolo[3,2-b]pyridin-6-yl]-3,5-dimethyl-isoxazole] | < 10 | –

Reference: US10519177B2, “Heterocyclic compounds and uses thereof” (Plexxikon Inc., priority 2013, dated 2019)
